Numbers after ± are expanded uncertainties.

The conditions of data set [1]: 298.15 K; 101.33 kPa; Liquid.
Data set [2] can be described thus: refractive index (Na D-line) (dimensionless). To be noted: 298.15 K; 101.33 kPa; Liquid; Standard Abbe refractometry.

For the compound `Cc1cccc(C)c1` [1,3-dimethylbenzene], the mass density in data set [1] was determined as 860.3 ± 0.5 kg/m3. In addition, in data set [2], the refractive index was determined as 1.4947 ± 0.0007.
In the same order, the values of `CCCCCCC` [heptane] are 679.4 ± 0.8 kg/m3 and 1.3854 ± 0.0007.
For the compound `CCCCCC` [hexane], the mass density in data set [1] was found to be 655.1 ± 0.7 kg/m3. Also, the refractive index in data set [2] is 1.3747 ± 0.0007.
The like results for `CCCCCCCC` [octane] were, in that order, 698.5 ± 0.8 kg/m3 and 1.3954 ± 0.0007.
For `C1CCOC1` [tetrahydrofuran], the mass density in data set [1] is reported as 881.9 ± 1.3 kg/m3. Further, the refractive index in data set [2] worked out at 1.4047 ± 0.0007.

Source of the values: the NIST ThermoML archive (doi:10.1021/je034182z).
